Data as given in patent US20050069887A1, “Dna synthesis promoters dna polymerase-associated factors and utilization thereof” (priority 2001, published 2005).
Like-named read-outs stand apart in the source and are kept apart here.

Assays:
Taq DNA polymerase = biological target: T1, Taq DNA polymerase (Thermus aquaticus, UniProt P19821); experiment: PCR using Taq DNA polymerase with added oxalate ion (Example 1-4); assay type: biochemical; settings: for PCR amplification of 4.5-kb DNA of myelin oligodendrocyte glycoprotein: FIG. 5; for PCR amplification of 3.6-kb DNA of β-globin: FIG. 4
T1 construct: purchased TOYOBO CO., LTD
Protocol: The effect produced by the addition of oxalate ions was investigated in PCR using Taq DNA polymerase. A PCR buffer (10 mM Tris-HCl (pH 8.3), 50 mM KCl, 1.5 mM MgCl2) attached to Taq (TOYOBO CO., LTD.), 0.2 mM dNTPs and 0.3 μM of a primer pair were used. A pair of primers of SEQ ID Nos:10 and 11 was used for the PCR amplification of a 3.6-kb DNA of β-globin cluster (the electrophoresis pattern of its PCR product is shown in FIG. 4), while a pair of primers of SEQ ID Nos:12 and 13 was used for the PCR amplification of a 4.5-kb DNA of myelin oligodendrocyte glycoprotein (the electrophoresis pattern of its PCR product is shown in FIG. 5). The influence of varying the concentration of oxalate ions added on the PCR results was investigated using 2.5 U Taq DNA polymerase and 20 ng of Genomic DNA derived from cultured human cell K562 as a template. The PCR conditions were as follows: 94° C. for 2 minutes as 1 preliminary reaction, and then 30 cycles of 94° C. for 15 seconds, 60° C. for 30 seconds and 68° C. for 8 minutes. The PCR amplification was performed by using GeneAmp 2400 (PE Applied Biosystems).

EX-Taq DNA polymerase = experiment: PCR using EX-Taq DNA polymerase with added salts (Examples 1-1 to 1-3); assay type: biochemical
Protocol: The effect produced by the addition of oxalate ions was investigated in the PCR using EX-Taq DNA polymerase. A PCR buffer supplied with EX-Taq (TAKARA) and 0.3 μM of a pair of primers of SEQ ID Nos:8 and 9 and 0.2 mM dNTPs were used. PCR was performed by using 1.0 U EX-Taq DNA polymerase and 20 ng of genomic DNA derived from human cell line K562 as a template, with the influence on the PCR result caused by varying the concentration of added oxalate ion being investigated. The PCR conditions were as follows: 1 preliminary reaction of 94° C. for 2 minutes, and then 35 cycles of 94° C. for 15 seconds, 60° C. for 30 seconds and 68° C. for 8.5 minutes. This PCR amplification was performed by using GeneAmp2400 (PE Applied Biosystems).
Salts (potassium chloride, potassium acetate, potassium oxalate, sodium oxalate, potassium sulfate) were investigated for their effectiveness in PCR using EX-Taq DNA polymerase under the same conditions as Example 1. Each salts was used in an amount of 4 to 6 mM of ion equivalent

nPfu DNA polymerase = biological target: T2, nPfu DNA polymerase (Pyrococcus furiosus, UniProt P61875); experiment: PCR using nPfu DNA polymerase with added salts (Examples 1-5, 1-6); assay type: biochemical; settings: for amplification of target DNA (electrophoresis pattern): salt at 4-6 mM of ion equivalent, FIG. 7
T2 construct: α-Type Enzyme (Native Pfu); purchased STRATAGENE
T2 sequence (P61875 1-775): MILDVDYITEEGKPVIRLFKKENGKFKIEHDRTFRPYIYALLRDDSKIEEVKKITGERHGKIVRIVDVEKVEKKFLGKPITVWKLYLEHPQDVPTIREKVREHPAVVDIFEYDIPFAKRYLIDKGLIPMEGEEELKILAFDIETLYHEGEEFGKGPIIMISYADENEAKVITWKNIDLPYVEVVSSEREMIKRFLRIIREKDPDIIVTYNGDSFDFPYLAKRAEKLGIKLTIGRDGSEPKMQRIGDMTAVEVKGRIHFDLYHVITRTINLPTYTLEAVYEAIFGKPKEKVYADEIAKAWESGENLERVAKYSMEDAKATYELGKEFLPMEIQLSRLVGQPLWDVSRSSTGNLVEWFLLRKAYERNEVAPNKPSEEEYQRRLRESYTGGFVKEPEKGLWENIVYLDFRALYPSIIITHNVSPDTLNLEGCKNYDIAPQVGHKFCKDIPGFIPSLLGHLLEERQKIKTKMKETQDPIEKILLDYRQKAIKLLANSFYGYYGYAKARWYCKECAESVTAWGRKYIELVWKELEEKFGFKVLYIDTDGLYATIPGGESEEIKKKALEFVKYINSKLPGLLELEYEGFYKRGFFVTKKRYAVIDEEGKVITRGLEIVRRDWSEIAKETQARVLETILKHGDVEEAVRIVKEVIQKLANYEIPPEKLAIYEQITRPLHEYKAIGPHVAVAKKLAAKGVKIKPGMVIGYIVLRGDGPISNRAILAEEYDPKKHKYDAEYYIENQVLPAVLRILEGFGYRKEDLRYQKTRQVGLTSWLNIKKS
Protocol: The effect produced by the addition of oxalate ion in PCR was investigated using nPfu polymerase. A PCR buffer (20 mM Tris-HCl (pH 8.75), 10 mM KCl, 10 mM (NH4) 2SO4, 2 mM MgSO4, 0.1% Triton X-100, 100 μg/ml BSA) attached to nPfu (STRATAGENE), 0.2 mM of dNTPs, and 0.3 μM of a pair of primers of SEQ ID NOs:12, and 13 were used. PCR was performed by using 2.5 U nPfu DNA polymerase and 20 ng of genomic DNA derived from human cell line K562 as a template, with the influence on the PCR result caused by varying the concentration of oxalate ion being investigated. PCR was performed by using GeneAmp2400 (PE Applied Biosystems) with the following conditions: 1 preliminary reaction of 94° C. for 2 minutes, and then 35 cycles of 94° C. for 15 seconds, 60° C. for 30 seconds and 68° C. for 8 minutes.
Salts (potassium chloride, potassium acetate, potassium oxalate, potassium sulfate) were tested for their effectiveness in PCR using nPfu DNA polymerase under the same conditions as Example 1-5.

KOD-plus DNA polymerase [1] = biological target: T3, KOD-plus DNA polymerase (Thermococcus kodakarensis, UniProt P77933, DEL407-766/DEL853-1389); assay type: biochemical, Thermococcus kodakaraensis KOD1
T3 construct: purchased Toyobo
Protocol: The effect produced by the addition of oxalate ion to a hot start enzyme was investigated using a hot start enzyme KOD-plus DNA polymerase containing KOD α-type enzyme) and two kinds of KOD antibodies. The PCR buffer supplied with KOD-plus (manufactured by Toyobo), 0.2 mM dNTPs and 0.3 μM of a primer pair of SEQ ID Nos:8 and 9 were used. PCR was performed using 2.5 U KOD-plus DNA polymerase and 20 ng of Genomic DNA derived from human cell line K562 as a template to investigate the influence of varying the concentration of oxalate ion added on the PCR results. The PCR conditions were as follows: 1 preliminary reaction of 94° C. for 2 minutes, and then 35 cycles of 94° C. for 15 seconds, 60° C. for 30 seconds and 68° C. for 8.5 minutes. The PCR was performed using GeneAmp2400 (PE Applied Biosystems).

KOD-plus DNA polymerase [2] = biological target: T3, KOD-plus DNA polymerase; assay type: biochemical, Thermococcus kodakaraensis KOD1; settings: for amplification of target DNA (electrophoresis pattern): salt at 6 mM of ion equivalent, FIG. 9; for effect on extra bands: FIG. 10
[3] = K562 genomic DNA template, FIG. 1

T1 sequence (P19821 whole entry): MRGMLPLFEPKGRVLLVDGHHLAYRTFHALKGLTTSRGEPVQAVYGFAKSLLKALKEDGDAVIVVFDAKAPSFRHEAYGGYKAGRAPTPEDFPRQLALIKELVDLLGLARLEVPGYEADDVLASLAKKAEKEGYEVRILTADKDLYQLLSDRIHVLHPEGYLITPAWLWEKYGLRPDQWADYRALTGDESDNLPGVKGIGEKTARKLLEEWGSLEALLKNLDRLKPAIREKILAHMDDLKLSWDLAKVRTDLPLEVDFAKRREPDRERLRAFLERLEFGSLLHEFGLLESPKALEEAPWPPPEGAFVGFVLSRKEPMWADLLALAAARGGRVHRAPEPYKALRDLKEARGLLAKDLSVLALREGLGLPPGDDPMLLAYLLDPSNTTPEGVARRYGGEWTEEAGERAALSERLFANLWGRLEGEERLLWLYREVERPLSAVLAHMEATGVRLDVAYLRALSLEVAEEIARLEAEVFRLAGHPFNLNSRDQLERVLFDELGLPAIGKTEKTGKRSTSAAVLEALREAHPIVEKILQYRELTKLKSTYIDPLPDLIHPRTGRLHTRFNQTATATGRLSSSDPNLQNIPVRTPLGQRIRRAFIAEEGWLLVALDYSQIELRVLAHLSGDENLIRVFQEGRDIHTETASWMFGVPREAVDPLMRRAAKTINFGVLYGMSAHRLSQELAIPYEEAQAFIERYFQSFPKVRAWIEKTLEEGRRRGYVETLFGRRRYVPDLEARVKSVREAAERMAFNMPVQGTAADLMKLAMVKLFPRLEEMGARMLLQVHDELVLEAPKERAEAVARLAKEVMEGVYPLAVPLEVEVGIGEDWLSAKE
T3 sequence (P77933 other isoform, or with tags, fused parts or gaps DEL407-766/DEL853-1389): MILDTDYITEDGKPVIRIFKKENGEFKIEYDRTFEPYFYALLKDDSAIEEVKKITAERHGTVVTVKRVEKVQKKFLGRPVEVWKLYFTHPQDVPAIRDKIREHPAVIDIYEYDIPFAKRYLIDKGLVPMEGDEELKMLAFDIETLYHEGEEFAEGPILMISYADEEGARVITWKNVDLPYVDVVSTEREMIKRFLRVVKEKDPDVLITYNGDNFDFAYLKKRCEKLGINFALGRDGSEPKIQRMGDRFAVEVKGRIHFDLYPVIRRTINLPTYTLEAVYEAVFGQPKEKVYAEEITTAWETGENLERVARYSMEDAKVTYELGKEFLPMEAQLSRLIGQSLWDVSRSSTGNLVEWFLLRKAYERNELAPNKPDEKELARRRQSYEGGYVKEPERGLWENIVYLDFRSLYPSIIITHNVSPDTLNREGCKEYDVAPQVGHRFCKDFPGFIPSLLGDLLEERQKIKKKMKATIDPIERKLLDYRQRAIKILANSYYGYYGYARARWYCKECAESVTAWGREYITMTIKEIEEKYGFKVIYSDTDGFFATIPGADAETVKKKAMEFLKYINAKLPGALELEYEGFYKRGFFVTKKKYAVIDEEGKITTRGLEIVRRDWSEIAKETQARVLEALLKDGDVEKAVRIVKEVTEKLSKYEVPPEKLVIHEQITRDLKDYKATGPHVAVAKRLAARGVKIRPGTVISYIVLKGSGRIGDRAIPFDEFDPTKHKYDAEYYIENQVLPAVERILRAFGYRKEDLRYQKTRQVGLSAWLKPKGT

O=C(O)C(=O)O [oxalate ion]
concentration range within which the effect of the addition of oxalate ion is found (Taq DNA polymerase): up to 5 mM | PCR amplification of 4.5-kb DNA of myelin oligodendrocyte glycoprotein (Taq DNA polymerase; 1 mM oxalate ion): amplification of the target DNA was observed together with a smear | PCR amplification of 3.6-kb DNA of β-globin (Taq DNA polymerase; 2 mM oxalate ion): amplification of the target sequence was observed together with a smear | PCR amplification of 4.5-kb DNA of myelin oligodendrocyte glycoprotein (Taq DNA polymerase; 2 mM oxalate ion): no smear was observed | PCR amplification of 3.6-kb DNA of β-globin (Taq DNA polymerase; 4 mM oxalate ion): no smear was observed | oxalate ion concentration giving a discrete amplification band (Taq DNA polymerase; 3.6-kb DNA of β-globin): 4 to 5 mM | oxalate ion concentration giving a discrete amplification band (Taq DNA polymerase; 4.5-kb DNA of myelin oligodendrocyte glycoprotein): 2 to 5 mM | concentration range of oxalate ion within which the effect of the addition is found (EX-Taq DNA polymerase): up to 4 mM | oxalate ion amount at which amplification of the target DNA was confirmed (EX-Taq DNA polymerase; [3]): 1 to 4 mM | oxalate ion concentration at which the amount of amplification was the highest (EX-Taq DNA polymerase; [3]): 2 to 3 mM | concentration range within which the effect of the addition of oxalate ion is found (nPfu DNA polymerase): up to 5 mM | oxalate ion concentration at which amplification of the target DNA was observed (nPfu DNA polymerase; FIG. 6): 2 to 5 mM | concentration range within which the effect of the addition of oxalate ion is found (KOD-plus DNA polymerase [1]): up to 5 mM

CC(=O)[O-].[K+] [potassium acetate, reference compound]
amplification of target DNA (electrophoresis pattern) (nPfu DNA polymerase): amplification of the target DNA was not observed | amplification of target DNA (electrophoresis pattern) (KOD-plus DNA polymerase [2]): Amplification of the target DNA was not observed

[Cl-].[K+] [potassium chloride, reference compound]
amplification of target DNA (electrophoresis pattern) (nPfu DNA polymerase): amplification of the target DNA was not observed | amplification of target DNA (electrophoresis pattern) (KOD-plus DNA polymerase [2]): Amplification of the target DNA was not observed

O=C[O-].[K+] [potassium formate, reference compound]
amplification of target DNA (electrophoresis pattern) (EX-Taq DNA polymerase; carboxylate salts, FIG. 3): A similar effect to that produced by oxalate salts was not observed

O=C([O-])CCC(=O)[O-].[K+].[K+] [potassium succinate, reference compound]
amplification of target DNA (electrophoresis pattern) (EX-Taq DNA polymerase; carboxylate salts, FIG. 3): A similar effect to that produced by oxalate salts was not observed

O=S(=O)([O-])[O-].[K+].[K+] [potassium sulfate, reference compound]
amplification of target DNA (electrophoresis pattern) (nPfu DNA polymerase): amplification of the target DNA was not observed | amplification of target DNA (electrophoresis pattern) (KOD-plus DNA polymerase [2]): Amplification of the target DNA was not observed

O=C([O-])/C=C\C(=O)[O-].[Na+].[Na+] [sodium maleate]
effect on extra bands (KOD-plus DNA polymerase [2]; 4 mM salt): extra bands tended to decrease | effect on extra bands (KOD-plus DNA polymerase [2]; 10 mM salt): most of the extra bands disappeared

O=C([O-])CC(=O)[O-].[Na+].[Na+] [sodium malonate]
effect on extra bands (KOD-plus DNA polymerase [2]; 2 mM salt): the extra bands tended to decrease | effect on extra bands (KOD-plus DNA polymerase [2]; 6 mM salt): most of the extra bands disappeared

O=C([O-])C(=O)[O-].[Na+].[Na+] [sodium oxalate]
amplification of target DNA (electrophoresis pattern) (EX-Taq DNA polymerase; carboxylate salts, FIG. 3): amplification of the target DNA was observed | amplification of target DNA (electrophoresis pattern) (EX-Taq DNA polymerase; salt at 4 to 6 mM of ion equivalent, FIG. 2): Amplification was observed | amplification of target DNA (electrophoresis pattern) (KOD-plus DNA polymerase [2]): Amplification was observed
